From paper PMC12775434, “Ultra-large virtual screening unveils potent agonists of the neuromodulatory orphan receptor GPR139” (Nature Communications, 2025)
Where “and” joins values, the source holds several entries; their conditions need not be identical. Equal values may be shown once.

Assays:
Type in all cases: cell-based
GPR139 [1] = target: T1, GPR139 (Homo sapiens, UniProt Q6DWJ6); experiment: Ca2+ mobilization assay, antagonist mode (EC80 800 nM Lundbeck Cmp 1a after 20 min preincubation), GPR139-CHOk1
T1 sequence (Q6DWJ6 1-353): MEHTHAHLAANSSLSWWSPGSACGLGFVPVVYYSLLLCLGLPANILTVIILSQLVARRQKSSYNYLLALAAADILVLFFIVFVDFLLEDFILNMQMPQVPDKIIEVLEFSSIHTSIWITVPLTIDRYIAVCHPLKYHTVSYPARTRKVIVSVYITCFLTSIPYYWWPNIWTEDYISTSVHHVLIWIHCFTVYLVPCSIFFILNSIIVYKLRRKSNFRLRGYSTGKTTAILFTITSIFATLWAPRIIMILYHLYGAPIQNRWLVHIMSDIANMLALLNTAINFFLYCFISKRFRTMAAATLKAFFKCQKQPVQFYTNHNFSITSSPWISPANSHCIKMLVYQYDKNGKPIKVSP
In short: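 Antagonist mode: 800 nM (EC80) reference agonist Lundbeck Cmp 1a added following 20 min pre-incubation with 10 µM compound. GPR139-CHOk1 cells, Fluo-4 dye, probenecid-containing HEPES buffer pH 7.4; intracellular Ca2+ measured at 37 °C (ex 485, em 525 nm).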

GPR139 [2] = target: T1, GPR139; experiment: Ca2+ mobilization assay, agonist mode, stable GPR139-CHOk1 cell line; conditions: for EC50 / Emax: Supplementary Table 2, mean ± SEM; for EC50: read-out: pEC50 Ca2+ (converted); for Emax: normalized to Lundbeck Cmp 1a, read-out: Emax (%) Ca2+
In short: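 Agonist activity of compounds is assessed in stably transfected CHO-K1 cells using the calcium dye Fluo-4 at 37 °C in HEPES-buffered HBSS (pH 7.4). Efficacy is expressed relative to the reference agonist Lundbeck Cmp 1a, set as 100%.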

[3] = target: T2, human muscarinic acetylcholine M1 receptor (M1R) (Homo sapiens, UniProt P11229); experiment: Ca2+ mobilization counter-screen in M1R-CHOk1 cells
T2 sequence (P11229 1-460): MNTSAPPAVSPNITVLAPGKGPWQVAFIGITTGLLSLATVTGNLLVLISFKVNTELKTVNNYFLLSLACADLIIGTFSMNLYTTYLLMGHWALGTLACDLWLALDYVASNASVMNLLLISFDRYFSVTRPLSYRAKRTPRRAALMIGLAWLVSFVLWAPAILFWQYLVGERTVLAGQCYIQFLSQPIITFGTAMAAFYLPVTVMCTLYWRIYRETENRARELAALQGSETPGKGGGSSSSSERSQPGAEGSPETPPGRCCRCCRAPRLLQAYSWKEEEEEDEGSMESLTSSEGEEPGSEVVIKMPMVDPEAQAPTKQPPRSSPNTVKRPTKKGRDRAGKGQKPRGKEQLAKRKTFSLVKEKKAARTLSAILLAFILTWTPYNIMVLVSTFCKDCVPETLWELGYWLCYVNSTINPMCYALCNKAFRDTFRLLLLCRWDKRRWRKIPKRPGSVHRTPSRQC
Method: Primary screening and pharmacological characterization of compounds were performed using a CHO-K1 cell line that stably expresses human GPR139 (GPR139-CHOk1). The GPR139-CHOk1 cell line was kindly provided by H. Lundbeck A/S, Denmark[24]. GPR139-CHOk1 cells were grown in Ham’s F-12 Kaighn’s Modification Medium (ThermoFisher #21127030) supplemented with 10% dialyzed fetal bovine serum (US origin, ThermoFisher #26400044), 100 units/mL Penicillin-Streptomycin (ThermoFisher #15140122), and 1 mg/mL Geneticin (ThermoFisher #11811031). […] M1R-CHOk1 cells were purchased from The Missouri S&T cDNA Resource Center (#CEM100TN00). M1R-CHOk1 cells were grown in Ham’s F12 Medium (ThermoFisher #21765029) supplemented with 10% fetal bovine serum (Brazilian origin, ThermoFisher #10270106), 100 units/mL Penicillin-Streptomycin, and 0.25 mg/mL Geneticin. HEK293A cells transiently transfected with GPR139 were used for additional pharmacological assessment of signaling pathways activated by GPR139. HEK239A cells were generously provided by Dr. Asuka Inoue, Tohoku University, Japan. HEK293A cells were grown in Dulbecco’s Modified Eagle Medium (ThermoFisher #31966047) supplemented with 10% dialyzed fetal bovine serum and 100 units/mL Penicillin-Streptomycin. Cell lines were maintained at 37 °C in humidified incubator equilibrated with 5% CO2.
30,000 GPR139- or M1R-CHOk1 cells/well were seeded in black clear bottom tissue culture treated 96-well plates (Greiner #655090) and grown for 20–24 h. Cells were washed with HEPES buffer (Hank’s Balanced Salt Solution (HBBS) supplemented with 20 mM HEPES, 1 mM MgCl2, and 1 mM CaCl2; pH 7.4). Cells were loaded with 50 µL of 2 µM Fluo-4 AM dye (ThermoFisher #F14202) in HEPES buffer supplemented with 2.5 mM probenecid and 0.01% Pluronic F-68 (ThermoFisher #24040032) for 1 h at 37 °C. Cells were washed with HEPES buffer. 50 µL HEPES buffer supplemented with 2.5 mM probenecid was added, and the cells were incubated for 10 min at 37 °C before measurement. 50 µL test compounds diluted in HEPES buffer from DMSO stocks (final DMSO concentration of maximally 0.3%) were added automatically after baseline measurements. The intracellular calcium mobilization was measured on a FlexStation 3 Multimode Microplate Reader (Molecular Devices) at 37 °C with filters for excitation of 485 nm and emission of 525 nm.

[4] = individual replicates (Supplementary Figure 4)
[5] = Agonist mode, individual replicates (Supplementary Figure 4)
[6] = log [Compound] M = -4.5, individual replicate columns
[7] = log [Compound] M = -5.0, individual replicate columns
[8] = log [Compound] M = -5.5, individual replicate columns
[9] = log [Compound] M = -6.0, individual replicate columns
[10] = log [Compound] M = -6.5, individual replicate columns
[11] = log [Compound] M = -7.0, individual replicate columns
[12] = log [Compound] M = -7.5, individual replicate columns
[13] = log [Compound] M = -8.0, individual replicate columns
[14] = log [Compound] M = -8.5, individual replicate columns
[15] = log [Compound] M = -9.0, individual replicate columns
[16] = individual replicates (Supplementary Figure 5)

Row | SMILES | Ca2+ signal (% of Cmp 1a) (GPR139 [1]; [4]) | Ca2+ signal (% of Cmp 1a) (GPR139 [2]; [5]) | EC50 (GPR139 [2]) [nM] | Emax (GPR139 [2]) [%] | Ca2+ signal (% of Cmp 1a) (GPR139 [2]; [6]) | Ca2+ signal (% of Cmp 1a) (GPR139 [2]; [7]) | Ca2+ signal (% of Cmp 1a) (GPR139 [2]; [8]) | Ca2+ signal (% of Cmp 1a) (GPR139 [2]; [9]) | Ca2+ signal (% of Cmp 1a) (GPR139 [2]; [10]) | Ca2+ signal (% of Cmp 1a) (GPR139 [2]; [11]) | Ca2+ signal (% of Cmp 1a) (GPR139 [2]; [12]) | Ca2+ signal (% of Cmp 1a) (GPR139 [2]; [13]) | Ca2+ signal (% of Cmp 1a) (GPR139 [2]; [14]) | Ca2+ signal (% of Cmp 1a) (GPR139 [2]; [15]) | Ca2+ signal (% of Carbachol) [3, 16] | other results
1 | Cc1cc(-c2nc(CC(=O)NC(C)c3ccccc3)no2)ns1 (stereo not shown) [Compound 1.43, CC(NC(=O)CC1=NOC(=N1)C=2C=C(C)SN2)C=3C=CC=CC3] | 4.33 % of Cmp 1a and 17 % of Cmp 1a and 5 % of Cmp 1a | 63 % of Cmp 1a and 81 % of Cmp 1a and 86 % of Cmp 1a | 1580 | 102 ± 7 | 114 % of Cmp 1a and 107 % of Cmp 1a and 84 % of Cmp 1a | 92 % of Cmp 1a and 86 % of Cmp 1a and 81 % of Cmp 1a | 82 % of Cmp 1a and 55 % of Cmp 1a and 100 % of Cmp 1a | 35 % of Cmp 1a and 11 % of Cmp 1a and 48 % of Cmp 1a | 14 % of Cmp 1a and -6.32 % of Cmp 1a and 5 % of Cmp 1a | -6 % of Cmp 1a and 6 % of Cmp 1a and -11 % of Cmp 1a | 0.152 % of Cmp 1a and 7 % of Cmp 1a and -5.32 % of Cmp 1a | 0.817 % of Cmp 1a and 5 % of Cmp 1a and 7 % of Cmp 1a | -1.79 % of Cmp 1a and -1.64 % of Cmp 1a and 0.136 % of Cmp 1a | 1.86 % of Cmp 1a and -3 % of Cmp 1a and -0.513 % of Cmp 1a | -0.351 % of Carbachol and 1.19 % of Carbachol and 1.15 % of Carbachol | fold decrease in potency relative to parent compound 1 (GPR139 [2]; Ca2+ mobilization EC50): 3- to 25 fold
2 | COCC(NC(=O)NC(C)c1ccc(F)cc1F)c1ccccc1 (stereo not shown) [Compound 6, COCC(NC(=O)NC(C)C=1C=CC(F)=CC1F)C=2C=CC=CC2] | – | – | – | – | – | – | – | – | – | – | – | – | – | – | – | Ca2+ signal (% of Cmp 1a) (GPR139 [1]; individual replicates (Supplementary Figure 1)): 39.4931 % of Cmp 1a and 54.2036 % of Cmp 1a and 45.3276 % of Cmp 1a; Ca2+ signal (% of Cmp 1a) (GPR139 [2]; 0.1 µM, individual replicates (Supplementary Figure 3)): -5.9 % of Cmp 1a and -10.9 % of Cmp 1a; Ca2+ signal (% of Cmp 1a) (GPR139 [2]; 1 µM, individual replicates (Supplementary Figure 3)): 3.9 % of Cmp 1a and 9.9 % of Cmp 1a; Ca2+ signal (% of Cmp 1a) (GPR139 [2]; 10 µM, individual replicates (Supplementary Figure 3)): 34.7 % of Cmp 1a and 32.7 % of Cmp 1a; activation of GPR139 at three concentrations (GPR139 [2]; 0.1, 1 and 10 µM, activity too low to reliably determine EC50): concentration-dependent activation of GPR139; Ca2+ signal (% of Cmp 1a) (GPR139 [2]; Agonist mode, individual replicates (Supplementary Figure 1)): 37 % of Cmp 1a and 42 % of Cmp 1a and 46 % of Cmp 1a; Ca2+ signal (% of Cmp 1a) (GPR139 [2]; primary screen, 10 µM compound, agonist mode, three columns = independent experiments): 37 % of Cmp 1a and 42 % of Cmp 1a and 46 % of Cmp 1a; Ca2+ signal (% of Carbachol) ([3]; individual replicates (Supplementary Figure 2)): -19 % of Carbachol and -0.753 % of Carbachol
3 | Cc1cnc2ccc(-c3nc(CC(=O)NC(C)c4ccccc4)no3)cn12 (stereo not shown) [Compound 1.40, CC(NC(=O)CC1=NOC(=N1)C=2C=CC3=NC=C(C)N3C2)C=4C=CC=CC4] | 23 % of Cmp 1a and 31 % of Cmp 1a and 12 % of Cmp 1a | 51 % of Cmp 1a and 56 % of Cmp 1a | 3160 | 86 ± 7 | 93 % of Cmp 1a and 71 % of Cmp 1a and 89 % of Cmp 1a | 80 % of Cmp 1a and 64 % of Cmp 1a and 78 % of Cmp 1a | 57 % of Cmp 1a and 35 % of Cmp 1a and 53 % of Cmp 1a | 32 % of Cmp 1a and 13 % of Cmp 1a and 17 % of Cmp 1a | 17 % of Cmp 1a and -10 % of Cmp 1a and -16 % of Cmp 1a | 21 % of Cmp 1a and -2.33 % of Cmp 1a and -20 % of Cmp 1a | 0 % of Cmp 1a and 1.33 % of Cmp 1a and 22 % of Cmp 1a | 11 % of Cmp 1a and 0.667 % of Cmp 1a and 28 % of Cmp 1a | 16 % of Cmp 1a and -6.33 % of Cmp 1a and 31 % of Cmp 1a | 20 % of Cmp 1a and -7 % of Cmp 1a and 0.667 % of Cmp 1a | -14 % of Carbachol and -5 % of Carbachol and -4.33 % of Carbachol | change in potency with larger substituents on the thiophene ring (GPR139 [2]; Ca2+ mobilization): three-fold reduction to a complete loss of activity
